Results on 45 molecules are retold here after ChEMBL document CHEMBL1137719, “Receptor-based 3D-QSAR studies of checkpoint Wee1 kinase inhibitors” (Eur J Med Chem, 2009).

Each structure is given as a SMILES string. Where “and” joins values, the source holds several entries; their conditions need not be identical. Identical values can stand only once.

Chain of Wee1-like protein kinase (P30291 whole entry): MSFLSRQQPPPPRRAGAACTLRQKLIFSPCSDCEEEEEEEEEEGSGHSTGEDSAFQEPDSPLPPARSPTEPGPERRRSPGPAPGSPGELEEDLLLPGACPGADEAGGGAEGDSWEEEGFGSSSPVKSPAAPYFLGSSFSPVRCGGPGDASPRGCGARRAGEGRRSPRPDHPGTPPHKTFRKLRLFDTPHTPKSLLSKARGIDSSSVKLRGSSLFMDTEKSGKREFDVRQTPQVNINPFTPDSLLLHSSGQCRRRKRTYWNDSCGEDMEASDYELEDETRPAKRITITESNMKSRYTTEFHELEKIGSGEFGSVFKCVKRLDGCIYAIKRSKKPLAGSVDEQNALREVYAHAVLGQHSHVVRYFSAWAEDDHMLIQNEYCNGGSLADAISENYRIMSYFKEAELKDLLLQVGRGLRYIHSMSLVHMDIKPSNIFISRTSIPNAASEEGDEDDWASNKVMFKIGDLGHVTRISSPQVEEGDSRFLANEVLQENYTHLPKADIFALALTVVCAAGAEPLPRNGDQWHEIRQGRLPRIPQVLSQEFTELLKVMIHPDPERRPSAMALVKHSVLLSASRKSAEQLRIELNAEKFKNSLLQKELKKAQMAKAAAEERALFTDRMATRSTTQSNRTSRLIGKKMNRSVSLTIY

The assay has as its target Wee1-like protein kinase (Homo sapiens, UniProt P30291).
For the molecule `O=C1NC(=O)c2c1c(I)cc1[nH]c3ccc(O)cc3c21`, half-maximal inhibition (IC50) required 2340 nM.

`NN1C(=O)c2c(-c3ccccc3)cc3[nH]c4ccc(O)cc4c3c2C1=O` gave an IC50 of 3980 nM. This IC50 lies about 1.7-fold higher than the previous one.

Regarding `O=C1NC(=O)c2c1c(-c1cccc(O)c1Cl)cc1[nH]c3ccc(O)cc3c21`, half-maximal inhibition (IC50) was put at 28.2 nM.

Molecule `CSc1ccc(-c2cc3[nH]c4ccc(O)cc4c3c3c2C(=O)NC3=O)cc1` showed an IC50 of 31600 nM. Compared with the last molecule, the IC50 is about 1100-fold higher.

In turn, `CC(=O)c1cccc(-c2cc3[nH]c4ccc(O)cc4c3c3c2C(=O)NC3=O)c1` gave a half-maximal inhibitory concentration (IC50) of 4370 nM.

On to `O=C1NC(=O)c2c1c(-c1ccccc1)c(-c1ccccc1)c1[nH]c3ccc(O)cc3c21`, for which 2340 nM corresponded to half-maximal inhibition (IC50).

`O=C1NC(=O)c2c1cc(-c1ccccc1)c1[nH]c3ccc(O)cc3c21` had an IC50 of 4070 nM.

Molecule `O=C1NC(=O)c2c1c(-c1ccccc1Cl)cc1c2c2cc(O)c(CCCCn3cccc3)cc2n1CCO` had an IC50 of 24 nM.

As to `O=C1NC(=O)c2c1c(-c1ccccc1Cl)cc1c2c2c(n1CCO)=CC(OCCCn1cccc1)C(O)(O)C=2` (stereo not given), the IC50 was 18 nM and 18.2 nM.

Turning to `O=C1NC(=O)c2c1c(-c1ccccc1Cl)cc1c2c2cc(O)c(OCCCn3cccc3)cc2n1CCO`, 24 nM corresponded to half-maximal inhibition (IC50).

In turn, `Cn1c2cc(SCCCn3cccc3)c(O)cc2c2c3c(c(-c4ccccc4Cl)cc21)C(=O)NC3=O` yielded a half-maximal inhibitory concentration (IC50) of 20 nM.

As to `O=C1NC(=O)c2c1ccc1c2c2cc(O)ccc2n1CCO`, the IC50 is 25.1 nM and 25 nM.

For the molecule `Cn1c2cc([S+]([O-])CCCn3cccc3)c(O)cc2c2c3c(c(-c4ccccc4Cl)cc21)C(=O)NC3=O` (stereo not given), the IC50 is 33 nM and 33.1 nM.

For the molecule `O=C1NC(=O)c2c1c(-c1c(Cl)cccc1Cl)cc1c2c2cc(O)ccc2n1CCCC(=O)N1CCOCC1`, the IC50 was 64.6 nM and 64 nM.

In the case of `O=C1NC(=O)c2c1c(-c1c(Cl)cccc1Cl)cc1c2c2cc(O)ccc2n1CCCC(=O)n1ccnc1`, the IC50 was 58.9 nM and 59 nM.

For the molecule `O=C1NC(=O)c2c1ccc1c2c2cc(O)ccc2n1CCCNc1ccccc1`, the IC50 was 93.3 nM and 93 nM.

`CN(C)CCNC(=O)CCn1c2ccc(O)cc2c2c3c(ccc21)C(=O)NC3=O`: half-maximal inhibition (IC50) required 170 nM.

Turning to `CN1CCN(CCCn2c3ccc(O)cc3c3c4c(ccc32)C(=O)NC4=O)CC1`, the IC50 was 302 nM and 300 nM.

`NC(=O)CCn1c2ccc(O)cc2c2c3c(ccc21)C(=O)NC3=O`: the IC50 is 20.9 nM and 21 nM.

The molecule `O=C1NC(=O)c2c1c(-c1ccc(-c3ccccc3)cc1)cc1[nH]c3ccc(O)cc3c21` registered an IC50 of 40000 nM. This lies in the double-digit micromolar range.

Turning to `O=C1NC(=O)c2c1c(-c1ccccc1Cl)cc1[nH]c3cc(OCCCn4cccc4)c(O)cc3c21`, the IC50 is 36 nM and 36.3 nM.

Turning to `O=C1NC(=O)c2c1c(-c1ccccc1Cl)cc1c2c2cc(O)ccc2n1CCC(=O)N1CCOCC1`, the IC50 is 64.6 nM and 64 nM.

`O=C1NC(=O)c2c1c(-c1c(Cl)cccc1Cl)cc1c2c2cc(O)ccc2n1CCC(=O)N1CCOCC1` gave an IC50 of 110 nM.

Regarding `O=C1NC(=O)c2c1c(-c1ccccc1Cl)cc1c2c2cc(O)ccc2n1CC[S+]([O-])n1ccnn1` (stereo not given), the concentration for half-maximal inhibition (IC50) was 9 nM and 8.91 nM.

Molecule `O=C1NC(=O)c2c1c(-c1c(Cl)cccc1Cl)cc1c2c2cc(O)ccc2n1CCC(=O)n1ccnc1` had an IC50 of 120 nM.

Regarding `Nc1cc(-c2cc3[nH]c4ccc(O)cc4c3c3c2C(=O)NC3=O)ccc1Cl`, the IC50 was 24 nM.

In the case of `O=C1NC(=O)c2c1c(-c1ccccc1Cl)cc1c2c2cc(O)ccc2n1CCS(=O)(=O)n1ccnn1`, the 50% inhibitory concentration (IC50) was 19 nM and 19.1 nM.

For the molecule `O=C1NC(=O)c2c1ccc1c2c2cc(O)ccc2n1CCC(=O)n1ccnc1`, the IC50 is 229 nM and 230 nM.

As for `O=C1NC(=O)c2c1ccc1c2c2cc(O)ccc2n1CCC(=O)N1CCOCC1`, the IC50 is 140 nM and 141 nM.

For the molecule `CN(C)CCCn1c2ccc(O)cc2c2c3c(ccc21)C(=O)NC3=O`, the IC50 was 360 nM and 363 nM.

In the case of `Cn1c2cc(CCCCn3cccc3)c(O)cc2c2c3c(c(-c4ccccc4Cl)cc21)C(=O)NC3=O`, the IC50 is 36 nM and 36.3 nM.

Consider `Cn1c2ccc(O)cc2c2c3c(ccc21)C(=O)NC3=O`, for which the IC50 was 141 nM and 140 nM.

As for `O=C1NC(=O)c2c1ccc1c2c2cc(O)ccc2n1CCCO`, the IC50 is 200 nM.

`Cn1c2cc(S(=O)(=O)NCCn3cccc3)c(O)cc2c2c3c(c(-c4ccccc4Cl)cc21)C(=O)NC3=O`: the IC50 was 46 nM and 45.7 nM.

In the case of `O=C1NC(=O)c2c1c(-c1ccccc1Cl)cc1[nH]c3cc(CCCCn4cccc4)c(O)cc3c21`, the IC50 was 50 nM and 50.1 nM.

In the case of `CNCCCn1c2ccc(O)cc2c2c3c(ccc21)C(=O)NC3=O`, the IC50 is 282 nM and 280 nM.

With `O=C1NC(=O)c2c1ccc1c2c2cc(O)ccc2n1CCCC(=O)N1CCOCC1`, the IC50 was 288 nM and 290 nM.

Turning to `CN(C)CCn1c2ccc(O)cc2c2c3c(ccc21)C(=O)NC3=O`, the IC50 is 200 nM.

Take `O=C(O)CCn1c2ccc(O)cc2c2c3c(ccc21)C(=O)NC3=O`: the IC50 is 22.9 nM and 23 nM.

As to `O=C1NC(=O)c2c1c(-c1ccccc1Cl)cc1c2c2cc(O)ccc2n1CCC(=O)n1ccnc1`, the IC50 is 91.2 nM and 92 nM.

Take `Cn1c2cc(S(=O)(=O)CCCn3cccc3)c(O)cc2c2c3c(c(-c4ccccc4Cl)cc21)C(=O)NC3=O`: the concentration for half-maximal inhibition (IC50) was 160 nM and 158 nM.

For `O=C1NC(=O)c2c1ccc1c2c2cc(O)ccc2n1CCCC(=O)n1ccnc1`, the IC50 turned out to be 110 nM.

The molecule `O=C1NC(=O)c2c1c(-c1ccccc1Cl)cc1c2c2cc(O)ccc2n1CCSn1ccnn1` had an IC50 of 24 nM.

For `CS(=O)(=O)c1ccc(-c2cc3[nH]c4ccc(O)cc4c3c3c2C(=O)NC3=O)cc1`, the IC50 was 1120 nM and 1100 nM.

With `O=C1NC(=O)c2c1c(-c1ccccc1Cl)cc1c2c2cc(O)ccc2n1CCCC(=O)n1ccnc1`, the IC50 is 54 nM and 53.7 nM.
